Results taken from paper PMC5025885, “Identification of Doxorubicin as an Inhibitor of the IRE1α-XBP1 Axis of the Unfolded Protein Response” (Scientific Reports, 2016).

Target: T1, IRE1α (Homo sapiens, UniProt O75460)
T1 construct: gene ERN1
Experiment: cell-free in vitro IRE1α RNase assay on XBP1 and BLOC1S1 RNA substrates
Type: biochemical

T1 sequence (O75460 19-977): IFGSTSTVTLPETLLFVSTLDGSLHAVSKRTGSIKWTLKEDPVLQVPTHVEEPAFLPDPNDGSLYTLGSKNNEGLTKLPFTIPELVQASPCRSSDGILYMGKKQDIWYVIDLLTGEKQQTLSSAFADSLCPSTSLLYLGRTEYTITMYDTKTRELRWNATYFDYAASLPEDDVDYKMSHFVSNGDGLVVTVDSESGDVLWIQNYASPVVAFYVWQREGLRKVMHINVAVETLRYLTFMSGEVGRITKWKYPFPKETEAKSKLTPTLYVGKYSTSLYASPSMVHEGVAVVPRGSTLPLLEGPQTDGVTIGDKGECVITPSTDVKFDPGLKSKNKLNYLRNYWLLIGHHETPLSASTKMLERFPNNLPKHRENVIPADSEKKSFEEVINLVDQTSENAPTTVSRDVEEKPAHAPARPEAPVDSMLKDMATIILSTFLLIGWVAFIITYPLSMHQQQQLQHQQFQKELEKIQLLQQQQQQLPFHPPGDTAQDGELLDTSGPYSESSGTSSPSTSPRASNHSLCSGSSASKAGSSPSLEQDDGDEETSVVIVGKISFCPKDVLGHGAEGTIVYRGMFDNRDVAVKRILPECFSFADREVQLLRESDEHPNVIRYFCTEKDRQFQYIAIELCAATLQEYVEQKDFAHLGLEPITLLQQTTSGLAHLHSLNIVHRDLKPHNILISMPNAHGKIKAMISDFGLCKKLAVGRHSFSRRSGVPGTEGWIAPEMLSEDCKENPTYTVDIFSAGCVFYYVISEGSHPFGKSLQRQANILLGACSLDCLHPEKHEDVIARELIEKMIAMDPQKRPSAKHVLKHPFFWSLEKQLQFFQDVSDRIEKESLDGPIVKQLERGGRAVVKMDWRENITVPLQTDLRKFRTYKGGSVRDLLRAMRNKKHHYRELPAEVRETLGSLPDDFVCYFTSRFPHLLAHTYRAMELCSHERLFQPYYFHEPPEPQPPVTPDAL

## COc1cccc2c1C(=O)c1c(O)c3c(c(O)c1C2=O)C[C@@](O)(C(=O)CO)C[C@@H]3O[C@H]1C[C@H](N)[C@H](O)[C@H](C)O1 [doxorubicin]
  IC50: ~20 µM
